SMILES strings stand for the structures.

The target of this experiment is Glutamine synthetase (Homo sapiens, UniProt P15104). Briefly: Enzyme Assay. To be noted: pH 7. On the procedure:
The enzyme was assayed at pH 7.0 using the pyruvate kinase/lactate dehydroenase coupling system.

Chain of Glutamine synthetase (P15104 whole entry): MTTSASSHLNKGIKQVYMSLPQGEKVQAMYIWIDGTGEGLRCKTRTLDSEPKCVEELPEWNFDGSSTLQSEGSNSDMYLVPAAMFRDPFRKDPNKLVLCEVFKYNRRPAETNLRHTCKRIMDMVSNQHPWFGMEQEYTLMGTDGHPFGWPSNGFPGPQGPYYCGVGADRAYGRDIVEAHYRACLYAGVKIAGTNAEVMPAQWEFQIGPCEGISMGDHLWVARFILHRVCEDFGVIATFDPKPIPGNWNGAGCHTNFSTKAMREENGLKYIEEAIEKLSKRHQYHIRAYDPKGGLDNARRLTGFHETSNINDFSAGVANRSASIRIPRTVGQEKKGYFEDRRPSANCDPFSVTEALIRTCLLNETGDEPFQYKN

As a reminder, the Ki is the dissociation constant of the complex between target and ligand, obtained from inhibition or displacement. Regarding `CC(CC(N)C(=O)O)P(C)(=O)O` (configuration not stated) [Phosphinothricin analog, 2 (D,L mixture)], affinity was put at a Ki of 140 nM.

`CP(=O)(O)CCC(N)C(=O)O` (stereo not drawn) [Phosphinothricin analog, 1 (L Isomer)] yielded a Ki of 0.22 nM. Compared with the last molecule, the Ki is about 640-fold lower.

These data come from BindingDB's records for doi:10.7270/Q24J0CNF (Chevron Chemical, 1990).
